Experimental data published in ChEMBL document CHEMBL3217544, “Evaluation of two cyclic di-peptides as inhibitors of CCL2 induced chemotaxis” (Medchemcomm, 2013).
Activity calls are given as the source filed them. The rule behind the calls is not given here.

Tests used:
[1] = biological target: T1, C-C motif chemokine 5 (Homo sapiens) (UniProt P13501); experiment: Inhibition of CCL5 in human THP1 cells assessed as reduction of cell migration at 50 uM after 3 hrs; type: cell-based; settings: THP-1
T1 sequence (whole entry): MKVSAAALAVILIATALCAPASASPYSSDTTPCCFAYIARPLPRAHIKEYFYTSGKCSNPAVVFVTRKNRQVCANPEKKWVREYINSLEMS

[2] = biological target: C-C motif chemokine 7 (Homo sapiens) (UniProt P80098); experiment: Inhibition of CCL7 in human THP1 cells assessed as reduction of cell migration at 50 uM after 3 hrs; type: cell-based; settings: THP-1
[3] = biological target: C-C motif chemokine 2 (Homo sapiens) (UniProt P13500); experiment: Inhibition of CCL2 in human THP1 cells assessed as effect on level of ERK1/2 phosphorylation at 50 uM after 5 mins by Western blot analysis; type: cell-based; settings: THP-1
[4] = biological target: C-C motif chemokine 2 (Homo sapiens) (UniProt P13500); experiment: Inhibition of CCL2 in human THP1 cells assessed as reduction of cell migration at 50 uM after 3 hrs; type: cell-based; settings: THP-1
[5] = biological target: C-C motif chemokine 2 (Homo sapiens) (UniProt P13500); experiment: Inhibition of CCL2 in human PBMC assessed as reduction of cell migration into TNFalpha/IFNgamma-stimulated HMEC-1 cells at 50 uM after 4 hrs; type: cell-based
[6] = biological target: C-C motif chemokine 2 (Homo sapiens) (UniProt P13500); experiment: Inhibition of CCL2 in human THP1 cells assessed as reduction of cell migration into TNFalpha/IFNgamma-stimulated HMEC-1 cells at 50 uM after 4 hrs; type: cell-based; settings: THP-1
[7] = biological target: C-C motif chemokine 2 (Homo sapiens) (UniProt P13500); experiment: Inhibition of CCL2 in human THP1 cells assessed as reduction of cell migration at 100 uM after 3 hrs; type: cell-based; settings: THP-1
[8] = biological target: C-C motif chemokine 2 (Homo sapiens) (UniProt P13500); experiment: Inhibition of CCL2 in human PBMC assessed as reduction of cell adhesion to VCAM1-Fc at 50 uM by flow based adhesion assay

Sequence of C-C motif chemokine 2 (Homo sapiens) (P13500 24-99 limits assumed): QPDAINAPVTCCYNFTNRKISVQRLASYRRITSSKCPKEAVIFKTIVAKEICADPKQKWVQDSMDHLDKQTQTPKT
Sequence of C-C motif chemokine 7 (Homo sapiens) (P80098 whole entry): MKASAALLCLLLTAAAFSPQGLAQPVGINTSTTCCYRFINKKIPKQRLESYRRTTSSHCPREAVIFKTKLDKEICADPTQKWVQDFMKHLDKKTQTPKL

inhibition [1]	inhibition [2]	inhibition [3]	inhibition [4]	inhibition [5]	inhibition [6]	inhibition [7]	inhibition [8]	Structure (SMILES)
inactive	inactive	inactive	40%	Active	70%	Active	35%	O=C1N[C@@H](Cc2ccc(F)cc2)C(=O)N2CCC[C@@H]12
		inactive	Active	Active	50%	Active		O=C1N[C@@H](Cc2ccccc2)C(=O)N2CCC[C@@H]12
